Laboratory results: ChEMBL document CHEMBL1139715, “Synthesis of 3,6-bis[H-Tyr/H-Dmt-NH(CH2)m,n]-2(1H)pyrazinone derivatives: function of alkyl chain length on opioid activity” (Bioorg Med Chem Lett, 2006)
pIC50, pKi: −log10 of the molar value.

What was measured:
[1] = target: Delta-type opioid receptor (Rattus norvegicus, UniProt P33533); test: Displacement of [3H]deltorphin II from delta opioid receptor in rat synaptosomes P2 fraction; type: subcellular, Brain
[2] = target: Opioid receptors; mu & delta (Rattus norvegicus) (UniProt P33533+P33535); test: Selectivity for rat mu opioid receptor over rat delta opioid receptor; type: protein assay
[3] = target: Mu-type opioid receptor (Rattus norvegicus, UniProt P33535); test: Displacement of [3H]DAMGO from mu opioid receptor in rat synaptosomes P2 fraction; type: subcellular, Brain
[4] = target: Delta-type opioid receptor (Mus musculus, UniProt P32300); test: (§1) Activity at delta opioid receptor assessed as inhibition of muscle contraction in mouse vas deferens assay; type: functional, tissue-based
[5] = target: Delta-type opioid receptor (Mus musculus) (UniProt P32300); test: as §1; type: functional, tissue-based; details: for inhibition: concentration not given here; for Activity: filed as partial agonist
[6] = target: Mu-type opioid receptor (Cavia porcellus, UniProt P97266); test: Activity at mu opioid receptor by guinea pig ileum assay; type: functional, tissue-based
Mu-type opioid receptor (Cavia porcellus, UniProt P97266), sequence (P97266 whole entry): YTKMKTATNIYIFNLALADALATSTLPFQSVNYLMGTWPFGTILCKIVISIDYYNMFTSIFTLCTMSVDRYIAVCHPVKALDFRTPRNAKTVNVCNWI

Mu-type opioid receptor (Rattus norvegicus, UniProt P33535), sequence (P33535 whole entry): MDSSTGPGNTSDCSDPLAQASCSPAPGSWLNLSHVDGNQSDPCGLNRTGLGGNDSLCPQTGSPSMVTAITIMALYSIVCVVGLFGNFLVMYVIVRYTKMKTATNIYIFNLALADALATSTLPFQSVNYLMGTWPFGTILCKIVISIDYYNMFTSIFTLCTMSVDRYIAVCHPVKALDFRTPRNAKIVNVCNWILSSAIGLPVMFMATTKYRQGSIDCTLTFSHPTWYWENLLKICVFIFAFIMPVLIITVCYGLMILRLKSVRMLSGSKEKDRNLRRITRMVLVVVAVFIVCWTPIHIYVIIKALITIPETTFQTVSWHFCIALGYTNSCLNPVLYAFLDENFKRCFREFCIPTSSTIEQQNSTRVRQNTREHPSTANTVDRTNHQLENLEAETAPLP
Opioid receptors; mu & delta (Rattus norvegicus), sequence (P33533 whole entry, looked up): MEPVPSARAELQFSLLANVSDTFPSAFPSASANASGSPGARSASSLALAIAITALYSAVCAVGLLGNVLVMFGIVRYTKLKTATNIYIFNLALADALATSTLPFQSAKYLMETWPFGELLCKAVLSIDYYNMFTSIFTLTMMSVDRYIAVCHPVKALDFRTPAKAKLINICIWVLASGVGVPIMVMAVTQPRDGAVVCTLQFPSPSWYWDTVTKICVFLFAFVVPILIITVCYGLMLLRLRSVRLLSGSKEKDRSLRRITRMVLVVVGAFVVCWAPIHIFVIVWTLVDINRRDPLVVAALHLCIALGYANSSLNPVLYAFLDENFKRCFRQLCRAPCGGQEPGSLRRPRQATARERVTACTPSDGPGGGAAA
Opioid receptors; mu & delta (Rattus norvegicus), sequence (P33535 whole entry, looked up): as the sequence (P33535 whole entry) above
Delta-type opioid receptor (Rattus norvegicus, UniProt P33533), sequence (P33533 whole entry): as the sequence (P33533 whole entry, looked up) above
Delta-type opioid receptor (Mus musculus), sequence (P32300 whole entry): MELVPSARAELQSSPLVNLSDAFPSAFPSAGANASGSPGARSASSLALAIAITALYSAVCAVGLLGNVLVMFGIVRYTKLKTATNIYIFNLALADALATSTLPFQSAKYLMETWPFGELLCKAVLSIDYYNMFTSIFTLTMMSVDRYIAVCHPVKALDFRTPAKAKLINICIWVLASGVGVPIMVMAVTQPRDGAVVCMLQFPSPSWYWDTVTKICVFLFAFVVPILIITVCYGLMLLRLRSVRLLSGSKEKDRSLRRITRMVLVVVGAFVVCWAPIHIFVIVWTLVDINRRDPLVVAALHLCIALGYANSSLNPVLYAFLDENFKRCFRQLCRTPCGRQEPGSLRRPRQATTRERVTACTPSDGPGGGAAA
Delta-type opioid receptor (Mus musculus, UniProt P32300), sequence (P32300 whole entry): as above

| Compound | pKi [1] | Ratio Ki [2] | pKi [3] | pIC50 [4] | inhibition [5] | Activity [5] | pIC50 [6] |
| --- | --- | --- | --- | --- | --- | --- | --- |
| Cc1nc(CCCCNC(=O)[C@@H](N)Cc2ccc(O)cc2)c(=O)[nH]c1CCCNC(=O)[C@@H](N)Cc1ccc(O)cc1 | 6.03 | 220 | 8.12 |  |  |  |  |
| Cc1cc(O)cc(C)c1C[C@H](N)C(=O)NCCCCc1[nH]c(=O)c(CCCNC(=O)[C@@H](N)Cc2c(C)cc(O)cc2C)nc1C | 7.73 | 369 | 10.29 | < 5.00 | 44% | Partial agonist | 8.31 |
| Cc1cc(O)cc(C)c1C[C@H](N)C(=O)NCCCCc1nc(C)c(CCCNC(=O)[C@@H](N)Cc2c(C)cc(O)cc2C)[nH]c1=O | 7.50 | 1520 | 10.68 | 7.59 | 60% | Partial agonist | 8.75 |
| Cc1nc(CCCNC(=O)[C@@H](N)Cc2ccc(O)cc2)c(=O)[nH]c1CCCCNC(=O)[C@@H](N)Cc1ccc(O)cc1 | 5.56 | 65 | 7.56 |  |  |  |  |
